Marks after values point to notes of the source that are not given here.
Columns and labels:
[1] = system: patients with stable HFrEF; experiment: Multiple-ascending dose trial, TTE left atrial parameters; type: in vivo, human
Description: This example describes a study to establish the effect on left atrial dimensions and function of single- and multiple-ascending oral doses of Compound I in ambulatory patients with stable heart failure with reduced ejection fraction (HFrEF). Key eligibility criteria included stable HFrEF of ischemic or nonischemic origin, treated with guideline-directed medical therapy (EF initial requirement during Screening was 20 to 45%, and was later changed by amendment to 15 to 35%). Subjects with active ischemia or severe or valvular heart disease were excluded.
The clinical trial enrolled patients who were 18-80 years of age with a clinical diagnosis of stable chronic heart failure with an LV ejection fraction (LVEF) on echocardiography of 45% or less (subsequently amended to ≤35%), treated with guideline-directed medical therapy, and with good quality echocardiogram images. […] Patients with current or recent AF were also excluded. Detailed inclusion and exclusion criteria are shown below.
This was a randomized, parallel-group, DB, placebo-controlled, adaptive design, sequential ascending (oral) multiple-dose study in stable patients with heart failure. Four MAD Cohorts (A, B, C, D) were enrolled (FIG. 7B). An SRC reviewed results from each cohort and determined the dose and confirmed initial sample size for the subsequent cohort. Additionally, the first 3 patients in each cohort had LVEF>25%; the SRC reviewed preliminary safety data from these patients and decided whether to open cohort enrollment to patients with LVEF<25%.
In Cohort A, Compound I 75 mg twice daily (BID) or matching placebo was administered after a 2-hour fast, and food was not allowed for the following 2 hours. In Cohorts B, C and D, patients received Compound I 50, 75 and 100 mg BID, respectively, with food (Table 5).
Patients were admitted to a clinical research unit for 11 days and underwent 3 consecutive study periods: (1) an initial single-blind placebo run-in period of 2 days (Days 1-2); (2) a randomized (1:3) double-blind treatment period in which patients received 7 days of placebo or Compound I, administered orally twice daily (from Day 3 until Day 9); (3) a follow-up period with patients discharged from the unit on D11, and a final follow-up clinic visit conducted on Day 16. During the 11-day confinement, patients were under continuous supervision.
During the study, multiple evaluations were performed that included: serial TTE assessments (11-14 TTEs per patient on Days 1, 2, 3, 4, 7, 9, 10 and 11); PK sampling (PK sample collected concomitantly with every post-randomization echocardiogram); ECGs (on Days 2, 3, 4, 7, 9, 10, 11 and 16); troponin (collected concomitantly with every post-randomization ECG); and safety laboratory assessments. Confined patients underwent continuous telemetry. Holter monitoring was performed in all patients at baseline (Days 1-2) and at the end of double-blind treatment (Days 7-9). Vital signs were collected daily.

[2] = system: LV (papillary) skinned muscle fibers; experiment: Myocardial force generation, LV skinned muscle fibers (tension-pCa, stiffness); type: biochemical, Yucatan mini-pig; settings: at 3 μM
Procedure: The ability of Compound I to increase myocardial force generation at a given Ca2+ concentration was evaluated using LA (n=6) and LV (n=6) skinned muscle fibers prepared from three different Yucatan mini-pig hearts. In short, as previously described, 3 hearts were harvested, rinsed and shipped in cold cardioplegia solution (Custodiol® HTK; Essential Pharmaceuticals, LLC, NC, USA). Upon receipt, LV (papillary) and LA muscle fibers were dissected at 4° C. in a high-relaxing solution (100 mM BES, 10 mM EGTA, 6.57 mM MgCl2, 10 mM creatine phosphate, 6.22 mM ATP, 41.89 mM Kprop, 2.5 μM pepstatin, 1 μM leupeptin, 50 μM PMSF, 5 mM NaN3, pH 7.0). Fiber bundles were cut and skinned (in a high-relaxing solution containing 1% Triton X-100), fitted with aluminum foil t-clips, and mounted on a mechanics apparatus (Aurora Scientific Inc., ON, Canada). Sarcomere length was set to 2.0 μm. Steady-state isometric tension and stiffness (via a 3% stretch over 250 ms) were measured at increasing concentrations of Ca^2+ (pCa 8.0 to 4.5, adjusted to maintain 180 mM ionic strength) twice, first in the absence (control, 1% DMSO) and then in the presence of Compound I (3 μM, 1% DMSO). In all cases, tension values were normalized to the control maximum isometric tension (at pCa 4.5). Active and passive stiffness were calculated by measuring the slope of the early (Ca^2+ dependent) and late phases, respectively, of the tension response to the brief 3% stretches. Data are presented as means (SD) in text or as mean±SEM in figures; EC50 values (and 95% CIs) were calculated using a four-parameter-fit model (GraphPad Prism, GraphPad Software Inc., CA, USA).

[3] = system: beagle dogs under isoflurane anesthesia, right-atrial burst pacing; experiment: AF inducibility and LA size/function with phenylephrine on board (Example 3)
[4] = plasma concentrations ≥2000 ng/mL, 'up to', p<0.01
[5] = 0.3-0.4 mg/kg IV bolus with 0.3/0.4 mg/kg/hr IV infusion, P<0.05
[6] = IV bolus + infusion with PE vs PE alone, FIG. 4

Cn1cc(S(=O)(=O)[C@@](C)(F)C2CCN(C(=O)Nc3ccon3)CC2)c(C(F)F)n1 [Compound I, (R)-4-(1-((3-(difluoromethyl)-1-methyl-1H-pyrazol-4-yl)sulfonyl)-1-fluoroethyl)-N-(isoxazol-3-yl)piperidine-1-carboxamide]
safety and tolerability of drug dosages and exposures tested ([1]; current studies): safe and are well tolerated
LAminVi, mean change from baseline (placebo-corrected) ([1]; plasma concentration 2000-<3500 ng/mL (medium), SE 0.6, p<0.01): −2.1 mL/m^2
LAEF, mean change from baseline (placebo-corrected) ([1]; plasma concentration 2000-<3500 ng/mL (n = 26, medium), SE 1.3, p<0.05): 3.3%
LAmaxVi, mean change from baseline (placebo-corrected) ([1]; plasma concentration 2000-<3500 ng/mL, SE 0.7): −1.1 mL/m^2
MR jet area/LA area ratio, mean change from baseline (placebo-corrected) ([1]; plasma concentration 2000-<3500 ng/mL, SE 1.3): −0.6%
LAEF, mean change from baseline (placebo-corrected) ([1]; plasma concentration <2000 ng/mL (n = 30), LS mean difference, SE 1.2, baseline 41 (8)): 2.1%
LAminVi, mean change from baseline (placebo-corrected) ([1]; plasma concentration <2000 ng/mL, SE 0.6, baseline 17 (7), p<0.01): −1.8** mL/m^2
LAmaxVi, mean change from baseline (placebo-corrected) ([1]; plasma concentration <2000 ng/mL, SE 0.6, baseline 28 (9)): −1.2 mL/m^2
MR jet area/LA area ratio, mean change from baseline (placebo-corrected) ([1]; plasma concentration <2000 ng/mL, SE 1.2, baseline 8.7 (10.5)): 0.3%
LAFI, mean change from baseline (placebo-corrected) ([1]; plasma concentration <2000 ng/mL, SE 1.5, baseline 26 (13)): 2.6
LAminVi, mean change from baseline (placebo-corrected) ([1]; plasma concentration ≥3500 ng/mL (high), SE 0.7, p<0.01): −2.4 mL/m^2
LAEF, mean change from baseline (placebo-corrected) ([1]; plasma concentration ≥3500 ng/mL (n = 13, high), SE 1.6, p<0.05): 3.6%
LAmaxVi, mean change from baseline (placebo-corrected) ([1]; plasma concentration ≥3500 ng/mL, SE 0.8): −1.3 mL/m^2
MR jet area/LA area ratio, mean change from baseline (placebo-corrected) ([1]; plasma concentration ≥3500 ng/mL, SE 1.6, p<0.05): −4.2* %
decrease in LA minimal volume index compared with placebo [1, 4]: up to −2.4 mL/m2
increase in LA function index compared with placebo [1, 4]: up to 6.1
passive stiffness, ventricular skinned fibers [2]: without altering passive stiffness
increase in LV tension ([2]; pCa 6.0): 43%
maximal force-generation capability, ventricular skinned fibers ([2]; data not shown): without altering
fractional shortening (FS), increase [3, 5]: 13±3%
left-ventricular stroke volume (SV), increase [3, 5]: 16±5%
systolic ejection time (SET), change ([3]; 0.3-0.4 mg/kg IV bolus with 0.3/0.4 mg/kg/hr IV infusion, prolonged, P<0.05): 10±3%
SBP under Compound I ([3]; 0.3-0.4 mg/kg IV bolus with IV infusion, PE on board, systemic pressures preserved): 135.7±6.2 mmHg
LV contractility (ΔEF) ([3]; Compound I, Example 3 protocol, FIG. 6): increase LV contractility
atrial emptying fraction (LA EF) [3, 6]: increasing the atrial emptying fraction
left-atrial size (LA Volmin) [3, 6]: decreased left-atrial size
AF inducibility (e.g., AF duration) ([3]; IV bolus + infusion with PE vs PE alone, burst pacing, FIG. 4): decreasing AF inducibility

Reference: patent US20230233545A1, “TREATMENT OF ATRIAL DYSFUNCTION” (MyoKardia, Inc., priority 2020, published 2023)
